# Measured values from article PMC12677653, “Inhibition of Tumor Lipogenesis and Growth by Peptide‐Based Targeting of SREBP Activation” (Advanced Science, 2025).
# Legend:
# SREBP2 = test: Immunofluorescence of SREBP2 nuclear translocation; type: cell-based, human; settings: Huh7 cells, peptide 15 μM, IGF1 100 ng/mL 8 h
# Method: For endogenous SREBP1 and SREBP2 staining, the cells were washed with ice‐cold PBS and fixed with 4% paraformaldehyde in PBS at room temperature (around 20–25 °C) for 15 min. Then, the cells were treated with 0.1% Triton X‐100 for 5 min and blocked in 3% BSA for 1 h at room temperature. The cells were then incubated with primary antibody against SREBP1 (diluted 1:200) or SREBP2 (diluted 1:200) overnight at 4 °C. After incubation with fluorescent‐dye‐conjugated secondary antibody (diluted 1:1000; Thermo Fisher Scientific) in PBS containing 0.05% saponin, 5% goat serum and 0.5% BSA for 1 h at room temperature followed by DAPI (diluted 1:10 000; Thermo Fisher Scientific) staining of the cell nucleus for 10 min. Cells were examined using a laser confocal microscope (Zeiss LSM 900).
# a) Following pretreatment with Insig1/2 loop 1 peptide (15 μM) and IGF1 stimulation (100 ng ml⁻¹, 8 h), Huh7 cells were subjected to immunofluorescence analysis (scale bar: 10 μm).
# Hep3B cells = test: Triglyceride (TG) detection assay, Hep3B; type: cell-based, human; settings: peptide 25 μM, IGF1 100 ng/mL 24 h, n = 3
# Method: Cells were harvested and processed for triglyceride (TG) quantification using the Amplex Red Triglyceride Assay Kit (Beyotime, Catalog No. S0129S) according to the manufacturer's instructions. Briefly, collect 1 million cells and add 200 µL of isopropanol. Centrifuge at 12 000 × g for 3–5 min at 4 °C, and collect the supernatant for subsequent analysis. Dilute the supernatant tenfold with assay buffer, and then add 50 µL of the diluted sample to a 96‐well black plate, add 2 µL of lipase, and mix thoroughly. Incubate at 37 °C for 20 min. Then, add 50 µL of the triglyceride detection working solution and mix well, incubate at 37 °C for 60 min in the dark. Set the excitation wavelength to 560 nm and the emission wavelength to 590 nm to measure the fluorescence intensity.
# f) Intracellular triglyceride (TG) content was quantified in Hep3B cells pretreated with Insig1/2 loop 1 peptide (25 μM) and stimulated with IGF1 (100 ng ml⁻¹) for 24 h.
# [1] = tested on: HCT116 human colon cancer cells; test: Cell proliferation / cell death, HCT116; type: cell-based; settings: concentration gradient of peptide, OD measurement (Figure S1i)
# Method: Cells were seeded in 96‐well plates at a density of 5000 cells per well in 100 µL complete growth medium. Following a 24‐hour incubation period (37 °C, 5% CO2) to permit cell adherence, the culture medium was replaced with fresh low serum contained complete medium containing either Insig1/2 loop1 peptide (0–100 µM concentration range) or PBS. Cells were maintained under these conditions for 72 hours. After treatment, the culture medium was carefully aspirated, and cells were washed twice with 200 µL phosphate‐buffered saline (PBS, pH 7.4). Fixed was performed using 4% paraformaldehyde (100 µL/well) for 15 min at room temperature, followed by three PBS washes (200 µL/well) to remove residual fixative. 0.1% (w/v) crystal violet staining solution was prepared by dissolving crystal violet powder in 10% ethanol, followed by filtration through a 0.22 µm membrane. Each well received 80 µL of staining solution and was incubated for 15 min at room temperature, protected from light. […] Plates were agitated at 200 rpm for 10 min to ensure complete dissolution before measuring absorbance at 582 nm using a microplate reader. […]
# i-k) (i) HCT116, (j) Huh7, and (k) Hep3B cells were exposed to a concentration gradient of Insig1/2 loop1 peptide, and cell proliferation was quantified by optical density (OD) measurements.
# [2] = Safety in mice: H&E staining of organs and blood examination; type: in vivo; settings: given iv as LNPs, 10 mg/kg
# Method: c-k) The LNP@Insig1/2 loop 1 peptide or PBS (control) was administered intravenously to 6-week-old nude mice (n = 4 per group) at a dose of 10 mg kg^-1 body weight. (c)Mice heart, liver, spleen, lung and kidney were harvested for H&E staining (scale bar: 50 μm). Mouse blood was collected for (d) ALT, (e) AST, (f) ALB, (g) ALP, (h) BUN, (i) UA, (j) CR, (k) CK analysis. ALT, alanine aminotransferase; AST, aspartate transaminase; ALB, albumin; ALP, alkaline phosphatase; BUN, blood urea nitrogen; UA, uric acid; CR, creatinine; CK, creatine kinase. Data are expressed as mean ± SD. Comparisons between the two groups were performed using Student's t-test.
sequence,measurement,setting,value
RKKRRQRRRLYPCIDSHLGEPHKFKRE [Insig1/2 loop 1 peptide],IGF1-induced nuclear translocation of SREBP2,SREBP2,inhibited
same,IGF1-induced increase in triglycerides (TGs),Hep3B cells,reduced
same,cell death,[1],induced cell death
same,toxicity (overall conclusion),[2],limited toxicity
